Source: patent EP4818168A1, “FUSED RING COMPOUND, PHARMACEUTICAL COMPOSITION THEREOF AND USE THEREOF” (priority 2023, dated 2025)
Read-outs that look alike come from different tables or passages of the source.

Key:
HCC1806 cells = test: CTG assay of compound inhibition on cell viability (HCC1806 cells); type: cell-based; settings: Homo sapiens, HCC1806, 144 h, read-out: IC50 in HCC1806 Cells
Experimental: CellTiter-Glo (CTG) is a rapid cell viability test method based on ATP detection. […] Adenosine triphosphate (ATP) participates in various enzymatic reactions in organisms and is an indicator of living cell metabolism. Its content directly reflects the number of living cells and cell status. During the experiment, equal volume of CTG reagent is added to the cultured cells to measure the luminescence value. The chemiluminescent signal value is proportional to the amount of ATP, thus reflecting the number of viable cells. Therefore, cell viability can be obtained by detecting the ATP content. Compounds that affect cell viability will inhibit cell viability in a concentration-dependent manner, allowing a curve to be fitted to obtain the IC50 value.
The experimental procedure is as follows: • 11. Place the cell suspension in a 15 mL centrifuge tube, centrifuge at 1000 rpm for 5 min at room temperature, discard the supernatant, and collect the cell pellet. • 12. Resuspend the cell pellet with preheated complete cell culture medium (RPMI1640+10%FBS+1%PS), and use a Countess® automated cell counter to detect cell viability and density. The cell viability must be above 90%. • 13. […] Transfer the compound solution to a 96-well plate seeded with cells (final concentration of DMSO 0.1%), and place in a cell incubator at 37°C, 5% CO2 for 6 days. • 15. […] Protect from light during the whole process. Perform optical signal readings using a SpectraMax i3x reader. • 16. Data analysis: Remaining activity (%) = 100% * (1 - ((LumDMSO - Lummedium) - Lumsample) / (LumDMSO - LumPBS/medium)). Use GraphPad Prism 9.0 software to draw an S-shaped dose-survival rate curve and calculate the IC50 value using a nonlinear regression model.

AURKA = biological target: T1, AURKA (Homo sapiens, UniProt O14965); type: cell-based
T1 construct: endogenous in cells; host or cells: Jurkat cells
T1 sequence (O14965 1-403): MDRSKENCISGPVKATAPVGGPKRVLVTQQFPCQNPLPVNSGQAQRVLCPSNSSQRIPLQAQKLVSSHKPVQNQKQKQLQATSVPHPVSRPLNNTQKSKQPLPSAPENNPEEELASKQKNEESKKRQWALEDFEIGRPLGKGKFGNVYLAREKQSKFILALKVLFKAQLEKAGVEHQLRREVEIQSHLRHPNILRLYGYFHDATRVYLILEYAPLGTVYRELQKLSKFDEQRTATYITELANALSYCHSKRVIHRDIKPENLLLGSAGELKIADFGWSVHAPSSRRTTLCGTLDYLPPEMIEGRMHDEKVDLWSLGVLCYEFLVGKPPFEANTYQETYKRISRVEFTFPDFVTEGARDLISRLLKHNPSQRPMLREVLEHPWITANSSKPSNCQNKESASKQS
Summary of the method: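 Jurkat cells seeded at 1×10^6 cells/500 µL and treated with compound; lysates run on SDS-PAGE, blotted to nitrocellulose and probed overnight at 4°C for AURKA. Chemiluminescent or fluorescent band intensity fitted to a curve to give DC50 for protein degradation.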

[1] = 100 nM compound, Jurkat cells, 24 h, Table 1
[2] = 1 µM compound, Jurkat cells, 24 h, Table 1

Row | SMILES | IC50 (HCC1806 cells) [nM] | Percentage of AURKA Degradation Induced by 100 nM Compound in Jurkat Cells (AURKA; [1]) | Percentage of AURKA Degradation Induced by 1 µM Compound in Jurkat Cells (AURKA; [2]) | Percentage of AURKA Degradation Induced by 100 nM Compound in Jurkat Cells (AURKA) | Percentage of AURKA Degradation Induced by 1 µM Compound in Jurkat Cells (AURKA)
1 | COc1cc(Nc2ncc3c(n2)-c2ccc(Cl)cc2C(c2c(F)cccc2OC)=NC3)ccc1C(=O)NCCN1CCN(c2ccc(N3CCC(=O)NC3=O)cn2)CC1 [Compound A29] | < 1000 | +++ (Degradation > 70%) | +++ (Degradation > 70%) |  | 
2 | O=C1CCN(c2ccc(N3CC4(CC(NC(=O)c5ccc(Nc6ncc7c(n6)-c6ccc(Cl)cc6C(c6c(F)cccc6F)=NC7)cc5)C4)C3)cc2)C(=O)N1 [Compound A59] | < 1000 | ++ (30% < Degradation ≤ 70%) | +++ (Degradation > 70%) |  | 
3 | COc1cccc(F)c1C1=NCc2cnc(Nc3ccc(C(=O)NCCN4CCN(c5ccc(N6CCC(=O)NC6=O)cn5)C5(CC5)C4)cc3)nc2-c2ccc(Cl)cc21 [Compound A67] | < 1000 | + (Degradation ≤ 30%) | + (Degradation ≤ 30%) |  | 
4 | COc1cccc(F)c1C1=NCc2cnc(Nc3ccc(C(=O)NCCN4CCN(c5ccc(N6CCC(=O)NC6=O)cn5)CC45CC5)cc3)nc2-c2ccc(Cl)cc21 [Compound A69] | < 1000 | +++ (Degradation > 70%) | +++ (Degradation > 70%) |  | 
5 | O=C1CCN(c2cccc(C#C[C@H]3C[C@H](NC(=O)c4ccc(Nc5ncc6c(n5)-c5ccc(Cl)cc5C(c5c(F)cccc5F)=NC6)cc4)C3)c2)C(=O)N1 [Compound A52] | < 1000 | ++ (30% < Degradation ≤ 70%) | ++ (30% < Degradation ≤ 70%) |  | 
6 | COc1cccc(F)c1C1=NCc2cnc(Nc3ccc(C(=O)NC4CC5(CCN(c6ccc(N7CCC(=O)NC7=O)cc6)CC5)C4)cc3)nc2-c2ccc(Cl)cc21 [Compound A46] | < 1000 | +++ (Degradation > 70%) | +++ (Degradation > 70%) |  | 
7 | COc1cccc(F)c1C1=NCc2cnc(Nc3ccc(C(=O)NC45CC(C#Cc6cccc(N7CCC(=O)NC7=O)c6)(C4)C5)cc3)nc2-c2ccc(Cl)cc21 [Compound A77] | 1000 to 10000 |  |  | ++ (key: +: Degradation ≤ 30%; ++: 30% < Degradation ≤ 70%; +++: Degradation > 70%) | ++ (key: +: Degradation ≤ 30%; ++: 30% < Degradation ≤ 70%; +++: Degradation > 70%)
8 | O=C1CCN(c2ccc(N3CCN(CCNC(=O)c4ccc(Nc5ncc6c(n5)-c5ccc(Cl)cc5C(c5c(F)cccc5F)=NC6)cc4)CC3=O)nc2)C(=O)N1 [Compound A64] | < 1000 |  |  | +++ (key: +: Degradation ≤ 30%; ++: 30% < Degradation ≤ 70%; +++: Degradation > 70%) | ++ (key: +: Degradation ≤ 30%; ++: 30% < Degradation ≤ 70%; +++: Degradation > 70%)
9 | COc1cc(Nc2ncc3c(n2)-c2ccc(Cl)cc2C(c2c(F)cccc2OC)=NC3)ccc1C(=O)N1CC(N(C)CC#Cc2cccc3c2CN(C2CCC(=O)NC2=O)C3=O)C1 (stereo not drawn) [Compound A34] | < 1000 | ++ (30% < Degradation ≤ 70%) | ++ (30% < Degradation ≤ 70%) |  | 
10 | COc1cc(Nc2ncc3c(n2)-c2ccc(Cl)cc2C(c2c(F)cccc2OC)=NC3)ccc1C(=O)NC1CCN(Cc2ccc(N3CCC(=O)NC3=O)cc2)CC1 [Compound A28] | < 1000 | + (Degradation ≤ 30%) | + (Degradation ≤ 30%) |  | 
11 | COc1cc(Nc2ncc3c(n2)-c2ccc(Cl)cc2C(c2c(F)cccc2OC)=NC3)ccc1C(=O)N1CCC2(CCN(c3ccc(N4CCC(=O)NC4=O)cc3)CC2)C1 [Compound A36] | < 1000 | + (Degradation ≤ 30%) | + (Degradation ≤ 30%) |  | 
12 | O=C1CCN(c2ccc(N3CCN(CCNC(=O)c4ccc(Nc5ncc6c(n5)-c5ccc(Cl)cc5C(c5c(F)cccc5F)=NC6)cc4)CC3)cc2)C(=O)N1 [Compound A10] | < 1000 | ++ (30% < Degradation ≤ 70%) | ++ (30% < Degradation ≤ 70%) |  | 
13 | COc1cc(Nc2ncc3c(n2)-c2ccc(Cl)cc2C(c2c(F)cccc2OC)=NC3)ccc1C(=O)N1CC2(CN(Cc3cccc4c3C(=O)N(C3CCC(=O)NC3=O)C4=O)C2)C1 (stereo not drawn) [Compound A33] | < 1000 | ++ (30% < Degradation ≤ 70%) | ++ (30% < Degradation ≤ 70%) |  | 
14 | COc1cc(Nc2ncc3c(n2)-c2ccc(Cl)cc2C(c2c(F)cccc2OC)=NC3)ccc1C(=O)NC1CN(CCc2ccc(N3CCC(=O)NC3=O)cc2)C1 [Compound A48] | < 1000 | + (Degradation ≤ 30%) | + (Degradation ≤ 30%) |  | 
15 | COc1cc(Nc2ncc3c(n2)-c2ccc(Cl)cc2C(c2c(F)cccc2OC)=NC3)ccc1C(=O)NCCN1Cc2cc3c(cc2C1)C(=O)N(C1CCC(=O)NC1=O)C3=O (stereo not drawn) [Compound A17] | < 1000 | + (Degradation ≤ 30%) | + (Degradation ≤ 30%) |  | 
16 | COc1cc(Nc2ncc3c(n2)-c2ccc(Cl)cc2C(c2c(F)cccc2OC)=NC3)ccc1C(=O)NC1CC2(CCN(c3ccc(N4CCC(=O)NC4=O)cc3)CC2)C1 [Compound A38] | < 1000 | +++ (Degradation > 70%) | +++ (Degradation > 70%) |  | 
17 | O=C1CCN(c2ccc(N3CCN(CCNC(=O)c4ccc(Nc5ncc6c(n5)-c5ccc(Cl)cc5C(c5c(F)cccc5F)=NC6)cc4)CC34CC4)nc2)C(=O)N1 [Compound A66] | < 1000 | + (Degradation ≤ 30%) | + (Degradation ≤ 30%) |  | 
18 | O=C1CCN(c2ccc(N3CC4(CCN(C(=O)c5ccc(Nc6ncc7c(n6)-c6ccc(Cl)cc6C(c6c(F)cccc6F)=NC7)cc5)C4)C3)cc2)C(=O)N1 [Compound A43] | > 10000 | + (Degradation ≤ 30%) | + (Degradation ≤ 30%) |  | 
19 | O=C1CCN(c2ccc(N3CCC4(CC3)CC(NC(=O)c3ccc(Nc5ncc6c(n5)-c5ccc(Cl)cc5C(c5c(F)cccc5F)=NC6)cc3)C4)nc2)C(=O)N1 [Compound A55] | < 1000 | +++ (Degradation > 70%) | +++ (Degradation > 70%) |  | 
20 | COc1cccc(F)c1C1=NCc2cnc(Nc3ccc(C(=O)NC4CN(CC5CN(c6cccc(N7CCC(=O)NC7=O)c6)C5)C4)cc3)nc2-c2ccc(Cl)cc21 [Compound A73] | < 1000 | +++ (Degradation > 70%) | +++ (Degradation > 70%) |  | 
